# From patent publication US20150311441A1, “METAL COMPLEX COMPOUND, AND ORGANIC LIGHT-EMITTING ELEMENT AND DISPLAY DEVICE CONTAINING THE SAME” (CANON KABUSHIKI KAISHA, priority 2014, published 2015)
# Test: Stability to water of a deposition film
# Settings: for State of the film after 5 min (stability to water): 100 nm deposition film on glass substrate, water dropped on film, state after 5 minutes measured with thickness profiler (Alpha-Step); for Dissolution of the film in water: deposition film in contact with water, summary of the Table 1 test
# Protocol: The stability to water of the metal complex compound was examined. A deposition film was formed to a thickness of 100 nm on a glass substrate, and water was dropped on the deposition film. After 5 minutes, the state of the film was measured with a thickness profiler (Alpha-Step). Also, the stability to water of lithium fluoride and cesium fluoride, which are generally used as an electron injection material, were examined for comparison.
Structure (SMILES),State of the film after 5 min (stability to water),Dissolution of the film in water
"[Cs+].[F-] [compound 2, cesium fluoride]",Dissolved,dissolved in water immediately
"[F-].[Li+] [compound 1, lithium fluoride]",Dissolved,dissolved in water immediately
